Target: T1, human chemokine receptor 2 isoform B (Homo sapiens, UniProt P41597)
T1 construct: host or cells: CHOK1-CCR2B-A5 (CHO-K1) cells
T1 sequence (P41597 1-360 isoform P41597-2): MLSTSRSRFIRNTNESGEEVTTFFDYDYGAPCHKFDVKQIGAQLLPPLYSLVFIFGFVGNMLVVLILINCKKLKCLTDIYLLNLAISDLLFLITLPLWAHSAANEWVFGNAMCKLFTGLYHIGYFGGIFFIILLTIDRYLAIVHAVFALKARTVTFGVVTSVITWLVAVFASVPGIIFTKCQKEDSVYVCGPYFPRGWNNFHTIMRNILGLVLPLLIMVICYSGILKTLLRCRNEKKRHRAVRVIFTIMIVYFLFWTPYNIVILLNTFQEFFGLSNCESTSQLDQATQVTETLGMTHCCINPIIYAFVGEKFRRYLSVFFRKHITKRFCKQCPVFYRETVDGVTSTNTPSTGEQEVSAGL
Assay: Calcium mobilization assay
Assay type: cell-based
Settings: Ca mobilization assay for CCR2; CHOK1-CCR2B-A5 cells; antagonist activity against 20 nM MCP-1; FLIPR, Fluo-4

Row | SMILES | IC50 [nM]
1 | COC(=O)[C@H](CCN1CCC2(CC2)[C@H](O)C1)N1C[C@H](C)N(c2ccc(Cl)c(Cl)c2)CCC1=O [Example 66, (S)-2-[(S)-4-(3,4-dichloro-phenyl)-3-methyl-7-oxo-[1,4]diazepan-1-yl]-4-((S)-4-hydroxy-6-aza-spiro[2.5]oct-6-yl)-butyric acid methyl ester] | 546
2 | CN(C)C(=O)[C@H](CCN1CCC2(CC2)[C@H](O)C1)N1CCN(c2ccc(Cl)c(Cl)c2)CCC1=O [Example 59, (S)-2-[4-(3,4-Dichloro-phenyl)-7-oxo-[1,4]diazepan-1-yl]-4-((S)-4-hydroxy-6-aza-spiro[2.5]oct-6-yl)-N,N-dimethyl-butyramide] | 80
3 | C[C@H]1C(=O)N(CCCCN2CCC3(CC3)[C@H](O)C2)CCN1c1cccc(OC(F)(F)F)c1 [Example 95, (S)-1-[4-((S)-4-Hydroxy-6-aza-spiro[2.5]oct-6-yl)-butyl]-3-methyl-4-(3-trifluoromethoxy-phenyl)-piperazin-2-one] | 13
4 | CC1C(=O)N(CCCN2CCC3(CC3)[C@H](O)C2)CCN1c1cccc(OC(F)(F)F)c1 (stereo partly drawn) [Example 44, 1-[3-((S)-4-Hydroxy-6-aza-spiro[2.5]oct-6-yl)-propyl]-3-methyl-4-(3-trifluoromethoxy-phenyl)-piperazin-2-one] | 20
5 | C[C@H]1C(=O)N(CCCN2CCC3(CC3)[C@H](O)C2)CCN1c1ccc2ccccc2c1 [Example 82, (S)-1-[3-((S)-4-Hydroxy-6-aza-spiro[2.5]oct-6-yl)-propyl]-3-methyl-4-naphthalen-2-yl-piperazin-2-one] | 73
6 | COC(=O)C(CCCN1CCC(C)(O)CC1)N1CCN(c2cccc(C(F)(F)F)c2)CCC1=O (racemic) [Example 29, (rac)-5-(4-Hydroxy-4-methyl-piperidin-1-yl)-2-[7-oxo-4-(3-trifluoromethyl-phenyl)-[1,4]diazepan-1-yl]-pentanoic acid methyl ester] | 640
7 | COCC(CCCN1CCC2(CC2)[C@H](O)C1)N1CCN(c2cccc(C(F)(F)F)c2)CCC1=O (stereo partly drawn) [Example 28, 4-[(R,S)-4-((S)-4-Hydroxy-6-aza-spiro[2.5]oct-6-yl)-t-methoxymethyl-butyl]-1-(3-trifluoromethyl-phenyl)-[1,4]diazepan-5-one] | 400
8 | C[C@H]1C(=O)N(CCCN2CCC3(CC3)[C@H](O)C2)CCN1c1ccc(C(F)(F)F)c(F)c1 [Example 102, (S)-4-(3-Fluoro-4-trifluoromethyl-phenyl)-1-[3-((S)-4-hydroxy-6-aza-spiro[2.5]oct-6-yl)-propyl]-3-methyl-piperazin-2-one] | 6
9 | COC[C@H](CCN1C[C@@H](C)C[C@H](O)C1)N1CCN(c2cccc(C(F)(F)F)c2)CCC1=O [Example 24, 4-[(S)-3-((3S,5S)-3-Hydroxy-5-methyl-piperidin-1-yl)-1-methoxymethyl-propyl]-1-(3-trifluoromethyl-phenyl)-[1,4]diazepan-5-one] | 90
10 | O=C1CCN(c2cccc(C(F)(F)F)c2)CCN1CCCN1CCC(O)(c2ccccc2)CC1 [Example 34, 4-[3-(4-Hydroxy-4-phenyl-piperidin-1-yl)-propyl]-1-(3-trifluoromethyl-phenyl)-[1,4]diazepan-5-one] | 930
11 | C[C@H]1C(=O)N(C[C@H](O)CN2CCC3(CC3)[C@H](O)C2)CCN1c1ccc(Cl)c(Cl)c1 [Example 101, (S)-4-(3,4-dichloro-phenyl)-1-[(R)-2-hydroxy-3-((S)-4-hydroxy-6-aza-spiro[2.5]oct-6-yl)-propyl]-3-methyl-piperazin-2-one] | 73

— patent US8138175B2, “Heterocyclyl compounds” (Hoffmann-La Roche Inc., priority 2008, dated 2012)
